Assay results: patent publication US4433147A, “Process for preparing 10-deazaminopterins” (priority 1982, dated 1984)
Where “and” joins values, the source holds several entries; their conditions need not be identical. Equal values may be shown once. Read-outs that look alike come from different tables or passages of the source.

Key:
[1] = system: P815 ascites
From the text: (§1) ^1 One dose (s.c.) every 2 days for a total of 5 doses.
(§2) MST = Median survival time ± standard deviation.
ILS = Increased life span.
Each dosage tested twice.

[2] = system: carrier in tumor; test: membrane transport by carrier in tumor; format: cell-based
[3] = Plasma and tissue (tumor, small intestine and marrow) pharmacokinetics; format: in vivo; conditions: for Plasma and tissue pharmacokinetics: small intestine and marrow, dAM versus MTX
[4] = system: L1210 ascites
From the text: ^1 One dose every 2 days for a total of 5 doses.
^2 Animals weigh 13-15 g at death (original weight 20 g).
as §2
ILS = increased life span.
Each dose tested 2 to 4 times.

[5] = system: S180-J ascites
From the text: as §1
(§3) ^2 Toxic animals weigh 13-15 g at death (original weight 20 g).
as §2
ILS = Increased life span.
Each dose tested 2 to 3 times.

[6] = system: ascites tumor systems; test: Ascites tumor systems, summary of Examples 10 to 13; format: in vivo, mice; conditions: all of the ascites tumor systems examined
[7] = system: L1210 leukemia; test: L1210 leukemia in BD (2) F1 female mice, i.p., increase in median life span (Example 8, Table I); conditions: for Increased life span / Median life span / Weight change: three times per week
[8] = in vivo; conditions: read-out: acute LD50
[9] = system: Ehrlich ascites
From the text: as §1, §3, §2
ILS = Increased life span.

[10] = system: Streptococcus faecium; conditions: DeGraw et al., J. Heterocyclic Chem. 8 105 (1971); cited from earlier work
[11] = system: L1210 leukemia; test: L1210 leukemia in BD (2) F1 female mice, i.p., 10-alkyl derivatives (Example 9, Table II); conditions: for AST / ILS: every two days times five; for antileukemic activity compared with methotrexate: on a similar dosage level
[12] = system: dihydrofolic reductase; conditions: cited from earlier work
[13] = 6.0 mg/kg oral every 2 days × 5

Nc1nc(N)c2nc(CCc3ccc(C(=O)N[C@@H](CCC(=O)O)C(=O)O)cc3)cnc2n1 [10-deazaminopterin, 10-Deazaminopterin]
ILS (increased life span) ([1]; 6 mg/kg s.c. every 2 days × 5): 107.6% | MST (median survival time) ([1]; 6 mg/kg s.c. every 2 days × 5): 18.2 ± 1.3 days | ILS (increased life span) ([1]; 9 mg/kg s.c. every 2 days × 5): 116.3% | MST (median survival time) ([1]; 9 mg/kg s.c. every 2 days × 5): 19.0 ± 0.9 days | ILS (increased life span) ([1]; 12 mg/kg s.c. every 2 days × 5): 118.4% | MST (median survival time) ([1]; 12 mg/kg s.c. every 2 days × 5): 19.2 ± 1.2 days | Maximum ILS ([1]; against P815, s.c., q2d×5): +117% | Toxic Deaths ([1]; mouse, in vivo): 0/10 | competition for carrier mechanism ([2]; dAM and MTX): compete for the same carrier mechanism | affinity of carrier in tumor ([2]; dAM versus MTX): greater affinity | saturability (Km) for influx ([2]; membrane transport in tumor, dAM versus MTX): favoring greater accumulation of dAM | persistence of exchangeable drug in tumor ([3]; optimum dosages, dAM over MTX): greater persistence | Plasma and tissue pharmacokinetics [3]: similar | ILS (increased life span) ([4]; 3 mg/kg oral every 2 days × 5): 77% | MST (median survival time) ([4]; 3 mg/kg oral every 2 days × 5): 11.7 ± 1.0 days | ILS (increased life span) ([4]; 3 mg/kg s.c. every 2 days × 5): 108% | MST (median survival time) ([4]; 3 mg/kg s.c. every 2 days × 5): 13.8 ± 0.7 days | ILS (increased life span) [4, 13]: 122% | MST (median survival time) [4, 13]: 14.7 ± 1.3 days | ILS (increased life span) ([4]; 6 mg/kg s.c. every 2 days × 5): 131% | MST (median survival time) ([4]; 6 mg/kg s.c. every 2 days × 5): 15.2 ± 1.5 days | ILS (increased life span) ([4]; 9 mg/kg s.c. every 2 days × 5): 168% | MST (median survival time) ([4]; 9 mg/kg s.c. every 2 days × 5): 17.8 ± 0.8 days | ILS (increased life span) ([4]; 12 mg/kg s.c. every 2 days × 5): 176% | MST (median survival time) ([4]; 12 mg/kg s.c. every 2 days × 5): 18.2 ± 1.3 days | Maximum ILS ([4]; against L1210, orally, same dosage and schedule): +122% | Maximum ILS ([4]; against L1210, s.c., q2d×5): +172% | Maximum ILS ([4]; ip): +203% | Toxic Deaths ([4]; mouse, in vivo): 0/10 and 0/15 and 1/15 and 0/20 | ILS (increased life span) ([5]; 3 mg/kg s.c. every 2 days × 5): 8.7% | MST (median survival time) ([5]; 3 mg/kg s.c. every 2 days × 5): 13.0 ± 1.1 days | ILS (increased life span) ([5]; 6 mg/kg s.c. every 2 days × 5): 74.8% | MST (median survival time) ([5]; 6 mg/kg s.c. every 2 days × 5): 21.2 ± 1.7 days | ILS (increased life span) ([5]; 9 mg/kg s.c. every 2 days × 5): 117.3% | MST (median survival time) ([5]; 9 mg/kg s.c. every 2 days × 5): 26.3 ± 0.7 days | 60 day survivors ([5]; 12 mg/kg s.c. every 2 days × 5): Two | ILS (increased life span) ([5]; 12 mg/kg s.c. every 2 days × 5): > 159.6% | MST (median survival time) ([5]; 12 mg/kg s.c. every 2 days × 5): > 31.4 ± 2.5 days | ILS (increased life span) ([5]; 18 mg/kg s.c. every 2 days × 5): 54.0% | MST (median survival time) ([5]; 18 mg/kg s.c. every 2 days × 5): 18.6 ± 2.4 days | long-term survivors ([5]; against S180, s.c.): long-term survivors | Maximum ILS ([5]; against S180, s.c., q2d×5): > +160% | Toxic Deaths ([5]; mouse, in vivo): 0/10 and 0/15 and 7/10 | activity compared with methotrexate [6]: more active than methotrexate | Increased life span ([7]; 0.1875 mg/kg i.p.): 3.0% | Median life span ([7]; 0.1875 mg/kg i.p.): 7.2 ± 0.6 days | Weight change ([7]; 0.1875 mg/kg i.p.): +10% | Increased life span ([7]; 0.375 mg/kg i.p.): 29.7% | Median life span ([7]; 0.375 mg/kg i.p.): 8.9 ± 1.0 days | Weight change ([7]; 0.375 mg/kg i.p.): +7% | Increased life span ([7]; 3.0 mg/kg i.p.): 164.8% | Median life span ([7]; 3.0 mg/kg i.p.): 13.0 ± 1.9 days | Weight change ([7]; 3.0 mg/kg i.p.): +5% | Toxicity ([7]; 6.0 mg/kg i.p.): slight toxicity | Increased life span ([7]; 6.0 mg/kg i.p.): 210.0% | Median life span ([7]; 6.0 mg/kg i.p.): 21.8 ± 1.5 days | Weight change ([7]; 6.0 mg/kg i.p.): -3% | life span of the test mice ([7]; i.p.): very considerably increased | antileukemic activity compared with methotrexate ([7]; on a similar dosage level, i.p.): superior to methotrexate | LD50 [8]: 65 mg/kg | ILS (increased life span) ([9]; 6 mg/kg s.c. every 2 days × 5): 34.8% | MST (median survival time) ([9]; 6 mg/kg s.c. every 2 days × 5): 23.2 ± 1.8 days | ILS (increased life span) ([9]; 9 mg/kg s.c. every 2 days × 5): 58.1% | MST (median survival time) ([9]; 9 mg/kg s.c. every 2 days × 5): 27.2 ± 2.2 days | ILS (increased life span) ([9]; 12 mg/kg s.c. every 2 days × 5): 64.0% | MST (median survival time) ([9]; 12 mg/kg s.c. every 2 days × 5): 28.2 ± 2.9 days | Maximum ILS ([9]; against Ehrlich, s.c., q2d×5): +61% | Toxic Deaths ([9]; mouse, in vivo): 0/10

Nc1nc2ncc(CCc3ccc(C(=O)O)cc3)nc2c(=O)[nH]1 [10-deazapteroic acid]
growth-inhibitory activity [10]: potent growth-inhibitory activity

CCC(Cc1cnc2nc(N)nc(N)c2n1)c1ccc(C(=O)N[C@@H](CCC(=O)O)C(=O)O)cc1 (stereo partly shown) [10-ethyl-10-deazaminopterin]
AST ([11]; 12 mg/kg i.p.): 18.3 ± 1.7 days | ILS ([11]; 12 mg/kg i.p.): +172% | AST ([11]; 18 mg/kg i.p.): 21.8 ± 1.4 days | ILS ([11]; 18 mg/kg i.p.): +220% | life span of the test mice ([11]; i.p.): very considerably increased | antileukemic activity compared with methotrexate ([11]; i.p.): superior to methotrexate

CC(Cc1cnc2nc(N)nc(N)c2n1)c1ccc(C(=O)N[C@@H](CCC(=O)O)C(=O)O)cc1 (stereo partly shown) [10-methyl-10-deazaminopterin, 10-Methyl-10-deazaminopterin]
AST ([11]; 12 mg/kg i.p.): 18.1 ± 1.9 days | ILS ([11]; 12 mg/kg i.p.): +170% | AST ([11]; 18 mg/kg i.p.): 22.2 ± 1.6 days | ILS ([11]; 18 mg/kg i.p.): +230% | life span of the test mice ([11]; i.p.): very considerably increased | Toxicity ([11]; maximum dose, about 22 mg/kg, i.p.): slight toxicity | antileukemic activity compared with methotrexate ([11]; i.p.): superior to methotrexate

CN(Cc1cnc2nc(N)nc(N)c2n1)c1ccc(C(=O)N[C@@H](CCC(=O)O)C(=O)O)cc1 [Methotrexate, reference compound]
MST (median survival time) ([1]; 6 mg/kg s.c. every 2 days × 5): 15.4 ± 1.1 days | Toxic Deaths ([1]; 6 mg/kg s.c. every 2 days × 5): 0/10 | MST (median survival time) ([1]; 9 mg/kg s.c. every 2 days × 5): 17.6 ± 1.6 days | Toxic Deaths ([1]; 9 mg/kg s.c. every 2 days × 5): 0/10 | MST (median survival time) ([1]; 12 mg/kg s.c. every 2 days × 5): 18.4 ± 1.3 days | Toxic Deaths ([1]; 12 mg/kg s.c. every 2 days × 5): 0/10 | Plasma and tissue pharmacokinetics [3]: similar | Weight change ([7]; 3.0 mg/kg i.p.): +8% | Toxicity ([7]; 6.0 mg/kg i.p.): Slight toxicity | Weight change ([7]; 6.0 mg/kg i.p.): +3% | LD50 ([8]; ip or sc): 96 mg/kg | dihydrofolic reductase inhibition [12]: powerful dihydrofolic reductase inhibitors | MST (median survival time) ([9]; 6 mg/kg s.c. every 2 days × 5): 19.8 ± 2.3 days | Toxic Deaths ([9]; 6 mg/kg s.c. every 2 days × 5): 0/10 | MST (median survival time) ([9]; 9 mg/kg s.c. every 2 days × 5): 20.8 ± 3.0 days | Toxic Deaths ([9]; 9 mg/kg s.c. every 2 days × 5): 0/10 | MST (median survival time) ([9]; 12 mg/kg s.c. every 2 days × 5): 20.2 ± 1.9 days | Toxic Deaths ([9]; 12 mg/kg s.c. every 2 days × 5): 0/10
